# Reference: US20040096427A1, “Oral gram(+) bacteria and glutamine composition for prevention and/or treatment of gastro-intestinal dysfunctions including inflammation in the gastro-intestinal tract, neonatal necrotizing enterocolitis (nec) and bacterial sepsis” (priority 2003, published 2004)
# Columns and labels:
# E. coli [1] = conditions: cited from earlier work; for tissue injury and inflammatory cell infiltration: rabbit ileal loop model, U.S. Pat. No. 6,132,710
# E. coli [2] = conditions: cited from earlier work; for adherence and translocation of Gram (−) organisms such as E. coli: Caco-2 cell culture model, U.S. Pat. No. 6,132,710
# E. coli [3] = assay: E. coli adherence to gastro-intestinal mucosa; conditions: inventors' determination
# E. coli [4] = assay: Caco-2 cell transwell system, E. coli translocation (transcytosis); assay type: cell-based; conditions: inventors' determination
# Experimental: Caco-2 cells derived from human adenocarcinoma cells which show all the morphological and functional characteristics of mature small intestinal epithelial cells after differentiation were employed in a number of experimental systems. Panigrahi et al., Development of an in vitro model for study of non-01 Vibrio cholerae virulence using Caco-2 cells, Infect. Immun., 58:3415-3424 (1990). Caco-2 cells were grown in DMEM supplemented with 1% nonessential amino acids, 1% sodium pyruvate, 10% fetal calf serum, 100 U penicillin and 100 μg of streptomycin/mL in a 5% CO2 atmosphere at 37° C. For transcytosis studies, 0.2×10^6 cells in 0.3 mL medium were seeded on the apical side of 0.6 cm^2 polycarbonate transwell filters/clusters (Costar, Cambridge, Mass.). […]
# A Caco-2 cell transwell system was used in accordance with Panigrahi et al. (1990) and Panigrahi et al. (1994) to grow cells on a membrane allowing the measurement of bacteria that translocate. Briefly, Caco-2 cells were grown on polycarbonate filters in transwell cluster and TEER (trans-epithelial electrical resistance) was measured before and after treatment (1) with E. coli alone, (2) in a system deprived of glutamine, (3) in a system deprived of glutamine and later replenished with glutamine, and (4) in a system deprived of glutamine and treated with a Lactobacillus strain ATCC 202195 and glutamine composition. […]
compound,measurement,setting,value
Lactobacillus plantarum,tissue injury and inflammatory cell infiltration,E. coli [1],reduced
same,adherence and translocation of Gram (−) organisms such as E. coli,E. coli [2],capable of blocking
NC(=O)CC[C@H](N)C(=O)O [glutamine],protection against Gram (−) bacteria-induced necrotizing enterocolitis,"E. coli [1]; instillation of rabbit ileal loops with glutamine, U.S. Pat. No. 5,981,590",protects
same,effect on E. coli adherence to gastro-intestinal mucosa,E. coli [3],does not have an effect
same,effect on translocation of E. coli across mucosal layers,E. coli [4],prevents translocation
same,bacterial translocation,"E. coli [2]; glutamine supplied from the luminal (apical) side, U.S. Pat. No. 5,981,590",reduce bacterial translocation
Lactobacillus acidophilus,tissue injury and inflammatory cell infiltration,E. coli [1],reduced
same,adherence and translocation of Gram (−) organisms such as E. coli,E. coli [2],capable of blocking
Lactobacillus,effect on E. coli adherence to gastro-intestinal mucosa,E. coli [3],prevents initial steps
